Test results taken from US9150528B2, “Compound having detrusor muscle-contracting activity and urethral sphincter muscle-relaxing activity” (ONO PHARMACEUTICAL CO., LTD., priority 2009, dated 2015).

What was measured:
[1] = test system: urinary excretion dysfunction models; experiment: Urinary excretion dysfunction models, maximal urinary flow rate; format: in vivo; settings: 60 ng/kg/h continuous intravenous, cynomolgus monkey urinary excretion dysfunction model
Text: Urinary excretion dysfunction models were constructed in accordance with the following procedure. After anesthesia of cynomolgus monkeys, the region from the suprapubic area to the abdominal area was shaved, followed by fixing in a dorsal position. The shaved region was disinfected and the four legs were fixed. Using an electrosurgical knife, the skin region from the suprapubic area to the umbilical area and the peritoneal membrane were sequentially incised, followed by damage to the pelvic nerve and removal of the uterus. After the surgical operation, viccillin-containing physiological saline was added dropwise to the incised area. The peritoneal membrane and skin of the incised area were sutured with silk threads and disinfected. Viccillin was administered for 7 consecutive days after surgery. Meloxicam was administered once daily for 7 consecutive days to manage pain in the perioperative period.
The cynomolgus monkeys were seated on monkey chairs, followed by retention of the hands and legs with strings. Injectable water was administered orally, and physiological saline and the test compound (60 ng/kg/h) were continuously administered intravenously to allow urination freely. The maximal urinary flow rate was measured using a urine weighing sensor.

urethral sphincter = experiment: Relaxation of isolated rat urethra specimens (Magnus system), phenylephrine-induced contraction; format: cell-based; settings: for Contractility of the urethral sphincter according to the compound concentration treated: rat urethra specimen
Experimental: Rats were anesthetized with pentobarbital, followed by abdominal incision to remove the bladders and the urethras. The bladder bodies were cut in the longitudinal direction to prepare strip specimens with a size of about 10×3 mm. Additionally, each of the urethras was also cut in the longitudinal direction to prepare specimens with a size of about 10×3 mm. The prepared specimens were suspended in Krebs buffer (37° C., 5 mL), which was aerated with a mixed gas of 95% O2 and 5% CO2. The tension values of the specimens were measured using a Magnus system equipped with an isometric transducer and an amplifier, and the measured values were recorded on a computer via a data collection system.
The specimens were suspended with a load of about 0.5 g. More than 1 hr later, potassium chloride (100 mmol/L) was added to the suspension and the maximal contraction response was observed. After washing with Krebs buffer, the specimens were suspended with a load of about 0.5 g for stabilization. Thereafter, a phenylephrine (100 μmol/L) was added to the suspension to induce the contraction of the specimens. After stabilization of the contraction-inducing response, the test compound was added in a cumulative manner and the response was observed before and after the treatment of the drug.

## C[C@@](O)(C/C=C/[C@H]1CCC(=O)[C@@H]1CCSc1nc(C(=O)O)cs1)CCC(F)=C(F)F [Compound 17, 2-[(2-{(1R,5R)-2-oxo-5-[(1E,4S)-7,8,8-trifluoro-4-hydroxy-4-methyl-1,7-octadien-1-yl]cyclopentyl}ethyl)thio]-1,3-thiazole-4-carboxylic acid]
[1]
  improvement in maximal urinary flow rate over the vehicle group: 61%
Urethral sphincter; 0 nmol/L
  Contractility of the urethral sphincter according to the compound concentration treated: 5 % of phenylephrine
Urethral sphincter; 1 nmol/L
  Contractility of the urethral sphincter according to the compound concentration treated: −2 % of phenylephrine
Urethral sphincter; 10 nmol/L
  Contractility of the urethral sphincter according to the compound concentration treated: −9 % of phenylephrine
Urethral sphincter; 100 nmol/L
  Contractility of the urethral sphincter according to the compound concentration treated: −36 % of phenylephrine
Urethral sphincter; 1 μmol/L
  Contractility of the urethral sphincter according to the compound concentration treated: −83 % of phenylephrine
Urethral sphincter; 10 μmol/L
  Contractility of the urethral sphincter according to the compound concentration treated: −89 % of phenylephrine
Urethral sphincter; summary in words of Table 2
  effect on the urethral sphincter: relaxed the urethral sphincter
